This is an account of results in ChEMBL document CHEMBL3872209, “Inhibitory activity evaluation and mechanistic studies of tetracyclic oxindole derivatives as α-glucosidase inhibitors” (Eur J Med Chem, 2016).

Broadly, the IC50 is the midpoint of a concentration-inhibition curve.

Calls of active or inactive are those of the source. The rule behind the calls is not given here. Bounds are passed on as bounds.

The first test relates to Saccharomyces cerevisiae. The test is described as follows: Irreversible inhibition of Baker's yeast alpha-glucosidase at 20 uM after 24 hrs by dialysis method.
As to `Nc1ccc(-c2ccc(NC(=O)CC3Oc4ccccc4-c4ccc5c(c43)C(=O)C(=O)N5Cc3ccc(C(F)(F)F)cc3)cc2)cc1` (stereo not drawn), the inhibition result was “Active”.

The subject of another test is Saccharomyces cerevisiae. The test is described as follows: […] inhibition of Baker's yeast alpha-glucosidase at 0.5 to 1 uM after 30 mins by Lineweaver-Burk plot method.
In the case of `Nc1ccc(-c2ccc(NC(=O)CC3Oc4ccccc4-c4ccc5c(c43)C(=O)C(=O)N5Cc3ccc(C(F)(F)F)cc3)cc2)cc1` (stereo not drawn), the inhibition result was “Active”.

Target in another test: not listed separately
The test is described as follows: Inhibition of Baker's yeast alpha-glucosidase using pNGP as substrate after 30 mins by spectrophotometric analysis. Also noted: species or system Saccharomyces cerevisiae.
With `Cc1c2c(cc3c1N(C)C(=O)C3=O)-c1ccccc1OC2CC(=O)Nc1ccccc1` (stereo not drawn), the concentration for half-maximal inhibition (IC50) is 36.1 µM. The same measure, in the same setting: with `O=C(O)CC1Nc2ccccc2-c2ccc3c(c21)C(=O)C(=O)N3Cc1ccc(C(F)(F)F)cc1` (stereo not drawn) the figure was 80 µM; with `Nc1ccc(-c2ccc(NC(=O)CC3Nc4ccccc4-c4ccc5c(c43)C(=O)C(=O)N5Cc3ccc(C(F)(F)F)cc3)cc2)cc1` (stereo not drawn), 1.9 µM; with `O=C(CC1Nc2ccccc2-c2ccc3c(c21)C(=O)C(=O)N3Cc1ccc(C(F)(F)F)cc1)Nc1ccccc1` (stereo not drawn), 4.6 µM.

Take `COC(=O)CC1Oc2ccccc2-c2ccc3c(c21)C(=O)C(=O)N3Cc1ccc(C(F)(F)F)cc1` (stereo not drawn): the IC50 was 15.7 µM. Same read-out and setting: the figure for `O=C1C(=O)N(Cc2ccc(C(F)(F)F)cc2)c2ccc3c(c21)C(CC(=O)N1CCCCC1)Oc1ccccc1-3` (stereo not drawn) is 4.4 µM. The same measure, in the same setting: the figure for `Cc1c2c(cc3c1N(Cc1ccc(C(F)(F)F)cc1)C(=O)C3=O)-c1ccccc1OC2CC(=O)O` (stereo not drawn) is 160 µM; for `O=C(O)CC1Oc2ccccc2-c2ccc3c(c21)C(=O)C(=O)N3Cc1ccc(C(F)(F)F)cc1` (stereo not drawn) it is 4.8 µM. The same measure, in the same setting: with `CN1C(=O)C(=O)c2c1ccc1c2C(CC(=O)O)Nc2ccccc2-1` (stereo not drawn) the figure was 187 µM. On to `COC(=O)CC1Oc2ccccc2-c2ccc3c(c21)C(=O)C(=O)N3Cc1ccccc1` (stereo not drawn), for which it took 12.1 µM to reach half-maximal inhibition (IC50).

As to `COC(=O)CC1Nc2ccccc2-c2ccc3c(c21)C(=O)C(=O)N3Cc1ccc(C(F)(F)F)cc1` (stereo not drawn), the midpoint of inhibition, the IC50, lay at 37.2 µM. Regarding `O=C(CC1Oc2ccccc2-c2ccc3c(c21)C(=O)C(=O)N3Cc1ccc(C(F)(F)F)cc1)Nc1ccccc1` (stereo not drawn), the 50% inhibitory concentration (IC50) came out at 4 µM.

The compound `COc1ccc(NC(=O)CC2Oc3ccccc3-c3ccc4c(c32)C(=O)C(=O)N4Cc2ccc(C(F)(F)F)cc2)cc1` (stereo not drawn) yielded an IC50 of 5.1 µM.

The compound `COC(=O)CC1Oc2ccccc2-c2ccc3c(c21)C(=O)C(=O)N3C` (stereo not drawn) showed an IC50 of 105 µM. Same read-out and setting: with `O=C1C(=O)N(Cc2ccc(C(F)(F)F)cc2)c2ccc3c(c21)C(CC(=O)N1CCNCC1)Oc1ccccc1-3` (stereo not drawn) the figure was 32.8 µM. Still for that read-out and setting: with `CN1C(=O)C(=O)c2c1ccc1c2C(CC(=O)Nc2ccc(-c3ccc(N)cc3)cc2)Nc2ccccc2-1` (stereo not drawn) the figure was 8.4 µM. Same read-out and setting: the figure for `COC(=O)CC1Nc2ccccc2-c2ccc3c(c21)C(=O)C(=O)N3C` (stereo not drawn) is 287 µM. `CNC(=O)CC1Oc2ccccc2-c2ccc3c(c21)C(=O)C(=O)N3Cc1ccc(C(F)(F)F)cc1` (stereo not drawn) showed an IC50 of 11.8 µM. `Cc1cc2c(c3c1N(Cc1ccc(C(F)(F)F)cc1)C(=O)C3=O)C(CC(=O)O)Oc1ccccc1-2` (stereo not drawn) registered an IC50 of 51.5 µM.

`CN1C(=O)C(=O)c2c1ccc1c2C(CC(=O)Nc2ccccc2)Nc2ccccc2-1` (stereo not drawn) showed an IC50 of 226 µM. The same measure, in the same setting: the figure for `NC(=O)CC1Oc2ccccc2-c2ccc3c(c21)C(=O)C(=O)N3Cc1ccc(C(F)(F)F)cc1` (stereo not drawn) is 43.9 µM.

`Cc1c2c(cc3c1N(C)C(=O)C3=O)-c1ccccc1OC2CC(=O)Nc1ccc(-c2ccc(N)cc2)cc1` (stereo not drawn) showed a concentration for half-maximal inhibition (IC50) of 5.2 µM. The same measure, in the same setting: with `CNC(=O)CC1Oc2ccccc2-c2cc3c(c(C)c21)N(C)C(=O)C3=O` (stereo not drawn) the figure was greater than 300 µM; with `CN(C)CCNC(=O)CC1Oc2ccccc2-c2ccc3c(c21)C(=O)C(=O)N3Cc1ccc(C(F)(F)F)cc1` (stereo not drawn), 162 µM.

Compound `Cc1c2c(cc3c1N(C)C(=O)C3=O)-c1ccccc1OC2CC(=O)O` (stereo not drawn) yielded a half-maximal inhibitory concentration (IC50) greater than 300 µM. On the same count and under the same terms, the figure for `O=C(O)CC1Oc2ccccc2-c2ccc3c(c21)C(F)(F)C(=O)N3Cc1ccc(C(F)(F)F)cc1` (stereo not drawn) is 67 µM. The same measure, in the same setting: with `O=C1C(=O)N(Cc2ccc(C(F)(F)F)cc2)c2ccc3c(c21)C(CC(=O)N1CCOCC1)Oc1ccccc1-3` (stereo not drawn) the figure was greater than 300 µM; with `O=C(CC1Oc2ccccc2-c2ccc3c(c21)C(=O)C(=O)N3Cc1ccc(C(F)(F)F)cc1)Nc1ccc(O)cc1` (stereo not drawn), 6.2 µM; with `Nc1ccc(-c2ccc(NC(=O)CC3Oc4ccccc4-c4ccc5c(c43)C(=O)C(=O)N5Cc3ccc(C(F)(F)F)cc3)cc2)cc1` (stereo not drawn), 0.7 µM. The same measure, in the same setting: with `O=C(O)CC1Oc2ccccc2-c2ccc3c(c21)/C(=N/O)C(=O)N3Cc1ccc(C(F)(F)F)cc1` (stereo not drawn) the figure was 47.7 µM; with `COC(=O)CC1Oc2ccccc2-c2cc3c(cc21)N(C)C(=O)C3=O` (stereo not drawn), 180 µM. For the compound `O=C(O)CC1Oc2ccccc2-c2ccc3c(c21)C(=O)C(=O)N3Cc1ccccc1` (stereo not drawn), 16 µM corresponded to half-maximal inhibition (IC50).

`COC(=O)CC1Oc2ccccc2-c2cc3c(c(C)c21)N(C)C(=O)C3=O` (stereo not drawn) registered a 50% inhibitory concentration (IC50) of 18.5 µM. The same measure, in the same setting: the figure for `COC(=O)CC1Nc2ccccc2-c2ccc3c(c21)C(=O)C(=O)N3Cc1ccc(OC)cc1` (stereo not drawn) is 45.3 µM; for `COC(=O)CC1Oc2ccccc2-c2cc3c(c(C)c21)N(Cc1ccc(C(F)(F)F)cc1)C(=O)C3=O` (stereo not drawn) it is 26.3 µM; for `COC(=O)CC1Oc2ccccc2-c2ccc3c(c21)C(=O)C(=O)N3Cc1ccc(OC)cc1` (stereo not drawn) it is 32.3 µM.

For another test, the system named is Saccharomyces cerevisiae. Put plainly: Mixed type inhibition of Baker's yeast alpha-glucosidase at 1 to 1.5 uM using varying pNGP substrate levels preincubated for 30 mins followed by substrate addition by Lineweaver-Burk plot method.
Take `Nc1ccc(-c2ccc(NC(=O)CC3Oc4ccccc4-c4ccc5c(c43)C(=O)C(=O)N5Cc3ccc(C(F)(F)F)cc3)cc2)cc1` (stereo not drawn): the inhibition result was “Active”.

The next test has as its system Saccharomyces cerevisiae. The test is described as follows: Binding affinity to Baker's yeast alpha-glucosidase after 30 mins by tryptophan fluorescence spectrophotometric method.
In the case of `Nc1ccc(-c2ccc(NC(=O)CC3Oc4ccccc4-c4ccc5c(c43)C(=O)C(=O)N5Cc3ccc(C(F)(F)F)cc3)cc2)cc1` (stereo not drawn), the Activity result is “Dose-dependent effect”.

The next test relates to Saccharomyces cerevisiae. Put plainly: Binding affinity to Baker's yeast alpha-glucosidase assessed as reduction in enzyme surface hydrophobicity after 30 mins by Bis-ANS dye based spectrofluorometric method.
In the case of `Nc1ccc(-c2ccc(NC(=O)CC3Oc4ccccc4-c4ccc5c(c43)C(=O)C(=O)N5Cc3ccc(C(F)(F)F)cc3)cc2)cc1` (stereo not drawn), the Activity entry was “Dose-dependent effect”.

In another test the test system is Saccharomyces cerevisiae. Put plainly: Potency index, ratio of acarbose IC50 to compound IC50 for inhibition of Baker's yeast alpha-glucosidase.
For the compound `Nc1ccc(-c2ccc(NC(=O)CC3Oc4ccccc4-c4ccc5c(c43)C(=O)C(=O)N5Cc3ccc(C(F)(F)F)cc3)cc2)cc1` (stereo not drawn), the Ratio IC50 was 165 to 170.

The next test concerns Saccharomyces cerevisiae. Put plainly: Binding affinity to Baker's yeast alpha-glucosidase at 5 to 50 uM after 30 mins by tryptophan fluorescence spectrophotometric method.
Turning to `Nc1ccc(-c2ccc(NC(=O)CC3Oc4ccccc4-c4ccc5c(c43)C(=O)C(=O)N5Cc3ccc(C(F)(F)F)cc3)cc2)cc1` (stereo not drawn), the outcome was Active.
